Source: PubChem BioAssay AID330 (DTP/NCI, 2004)
“And” between values parts separate entries of the source, which are not always exact repeats. Identical values can stand only once. Inconclusive results and toxic doses are left out.

System: P388 leukemia ip, CD2F1 mice, survival T/C
Assay: NCI In Vivo Anticancer Drug Screen. Data for tumor model P388 Leukemia (intraperitoneal) in CD2F1 (CDF1) mice
Conditions: endpoint: median survival time, higher = longer survival
In short: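 Mice carrying the transplanted tumor received test compound or vehicle. Survival was recorded in each group, and the value is the treated-group measurement divided by that of the vehicle-treated control group.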

[1] = dose: 3.13 mg/kg/injection, schedule: Q01DX009 (ip), vehicle: saline with Tween-80
[2] = dose: 3.13 mg/kg/injection, schedule: Q04DX003 (ip), vehicle: saline
[3] = dose: 6.25 mg/kg/injection, schedule: Q01DX009 (ip), vehicle: saline with Tween-80
[4] = dose: 6.25 mg/kg/injection, schedule: Q04DX003 (ip), vehicle: saline
[5] = dose: 12.5 mg/kg/injection, schedule: Q04DX003 (ip), vehicle: saline
[6] = dose: 50.0 mg/kg/injection, schedule: Q01DX005 (ip), vehicle: Klucel (hydroxypropylcellulose) (HPC)
[7] = dose: 60.0 mg/kg/injection, schedule: Q01DX005 (ip), vehicle: saline with Tween-80
[8] = dose: 120.0 mg/kg/injection, schedule: Q01DX005 (ip), vehicle: saline with Tween-80
[9] = dose: 240.0 mg/kg/injection, schedule: Q01DX005 (ip), vehicle: saline with Tween-80
[10] = dose: 100.0 mg/kg/injection, schedule: Q04DX002 (ip), vehicle: Klucel (hydroxypropylcellulose) (HPC)
[11] = dose: 200.0 mg/kg/injection, schedule: Q04DX002 (ip), vehicle: Klucel (hydroxypropylcellulose) (HPC)

For `c1ccc([I+]c2ccccc2)cc1`, the T/C (dose: 0.65 mg/kg/injection, schedule: Q01DX009 (ip), vehicle: saline) was 95 % of control, the T/C (dose: 1.25 mg/kg/injection, schedule: Q01DX009 (ip), vehicle: saline sonified) was 100 % of control and the T/C (dose: 1.3 mg/kg/injection, schedule: Q01DX009 (ip), vehicle: saline) was 90 % of control. The T/C (dose: 1.56 mg/kg/injection, schedule: Q01DX009 (ip), vehicle: saline with Tween-80) was 103 % of control, the T/C (dose: 2.5 mg/kg/injection, schedule: Q01DX009 (ip), vehicle: saline sonified) was 118 % of control and the T/C (dose: 2.5 mg/kg/injection, schedule: Q01DX009 (ip), vehicle: saline) was 109 % of control. The T/C (dose: 2.6 mg/kg/injection, schedule: Q01DX009 (ip), vehicle: saline with Tween-80) was 106 % of control, the T/C (dose: 3.13 mg/kg/injection, schedule: Q01DX009 (ip), vehicle: saline sonified) was 100 % of control and the T/C [1] was 108 % of control. The T/C [2] was 100 % of control, the T/C (dose: 4.0 mg/kg/injection, schedule: Q01DX009 (ip), vehicle: saline with Tween-80) was 113 % of control and the T/C (dose: 6.0 mg/kg/injection, schedule: Q01DX009 (ip), vehicle: saline with Tween-80) was 113 % of control. For the same molecule, the T/C [3] was 122 % of control and 91 % of control, the T/C [4] was 118 % of control and the T/C [5] was 118 % of control.

`CCNCc1c2c(O)c3c(O)c(C)c4c(c3c1O)C(=O)C(C)(O/C=C/C(OC)C(C)C(OC(C)=O)C(C)C(O)C(C)C(O)C(C)/C=C/C=C(/C)C(=O)N2)O4` (stereo unspecified) was tested, and the T/C (dose: 25.0 mg/kg/injection, schedule: Q01DX009 (ip), vehicle: other) was 89 % of control, the T/C (dose: 50.0 mg/kg/injection, schedule: Q01DX009 (ip), vehicle: other) was 89 % of control and the T/C (dose: 100.0 mg/kg/injection, schedule: Q01DX009 (ip), vehicle: other) was 89 % of control. For the same molecule, the T/C (dose: 200.0 mg/kg/injection, schedule: Q01DX009 (ip), vehicle: other) was 89 % of control and the T/C (dose: 400.0 mg/kg/injection, schedule: Q01DX009 (ip), vehicle: other) was 90 % of control.

With `CCCCCCCC(=O)OC(C)C1/C=C/C=C\C(=O)O[C@@H]2C[C@H]3OC4C5OC5(C)CCC4(COC(=O)C4O[C@@]4(C)C(OC(=O)CCCCCCC)CO1)[C@]2(C)[C@]31CO1` (stereo partly specified) the T/C (dose: 1.25 mg/kg/injection, schedule: Q01DX009 (ip), vehicle: Klucel (hydroxypropylcellulose) (HPC)) was 102 % of control, the T/C (dose: 2.5 mg/kg/injection, schedule: Q01DX009 (ip), vehicle: Klucel (hydroxypropylcellulose) (HPC)) was 106 % of control and the T/C (dose: 5.0 mg/kg/injection, schedule: Q01DX009 (ip), vehicle: Klucel (hydroxypropylcellulose) (HPC)) was 99 % of control and 106 % of control. For the same molecule, the T/C (dose: 10.0 mg/kg/injection, schedule: Q01DX009 (ip), vehicle: Klucel (hydroxypropylcellulose) (HPC)) was 98 % of control and 101 % of control, the T/C (dose: 20.0 mg/kg/injection, schedule: Q01DX009 (ip), vehicle: Klucel (hydroxypropylcellulose) (HPC)) was 110 % of control and the T/C (dose: 40.0 mg/kg/injection, schedule: Q01DX005 (ip), vehicle: Klucel (hydroxypropylcellulose) (HPC)) was 90 % of control. The T/C (dose: 40.0 mg/kg/injection, schedule: Q01DX009 (ip), vehicle: Klucel (hydroxypropylcellulose) (HPC)) was 99 % of control, the T/C (dose: 80.0 mg/kg/injection, schedule: Q01DX005 (ip), vehicle: Klucel (hydroxypropylcellulose) (HPC)) was 90 % of control and the T/C (dose: 150.0 mg/kg/injection, schedule: Q01DX005 (ip), vehicle: Klucel (hydroxypropylcellulose) (HPC)) was 91 % of control. The T/C (dose: 160.0 mg/kg/injection, schedule: Q01DX005 (ip), vehicle: Klucel (hydroxypropylcellulose) (HPC)) was 108 % of control and the T/C (dose: 300.0 mg/kg/injection, schedule: Q01DX005 (ip), vehicle: Klucel (hydroxypropylcellulose) (HPC)) was 100 % of control.

In the case of `C[N+]1=C(/C=C/Nc2cccc(N/C=C/C3=[N+](C)c4ccccc4C3(C)C)c2)C(C)(C)c2ccccc21`, the T/C (dose: 12.5 mg/kg/injection, schedule: Q01DX005 (ip), vehicle: Klucel (hydroxypropylcellulose) (HPC)) is reported as 97 % of control, the T/C (dose: 25.0 mg/kg/injection, schedule: Q01DX005 (ip), vehicle: Klucel (hydroxypropylcellulose) (HPC)) is reported as 97 % of control and the T/C [6] is reported as 105 % of control.

With `O=P(C(=S)Nc1ccc(S(=O)(=O)N2CCCCC2)cc1)(c1ccccc1)c1ccccc1` the T/C (dose: 50.0 mg/kg/injection, schedule: Q01DX009 (ip), vehicle: Klucel (hydroxypropylcellulose) (HPC)) was 97 % of control, the T/C (dose: 100.0 mg/kg/injection, schedule: Q01DX009 (ip), vehicle: Klucel (hydroxypropylcellulose) (HPC)) was 95 % of control and the T/C (dose: 200.0 mg/kg/injection, schedule: Q01DX009 (ip), vehicle: Klucel (hydroxypropylcellulose) (HPC)) was 98 % of control.

For `O=C1N(Cl)C(=O)C2(c3ccccc3-c3ccccc32)N1Cl`, the T/C [6] was 100 % of control and the T/C (dose: 100.0 mg/kg/injection, schedule: Q01DX005 (ip), vehicle: Klucel (hydroxypropylcellulose) (HPC)) was 108 % of control.

`CN(C(=S)NNC(=O)C1CCC(=O)N1)c1ccccc1` (stereo unspecified) was tested, and the T/C [7] was 99 % of control, the T/C [8] was 98 % of control and the T/C [9] was 103 % of control.

In the case of `O=C(NO)c1coc2ccccc2c1=O`, the T/C [7] is reported as 101 % of control and the T/C [8] is reported as 103 % of control.

For `O=C1CC2(C(=O)N1CN1CCOCC1)c1ccccc1-c1ccccc12`, the T/C (dose: 50.0 mg/kg/injection, schedule: Q04DX002 (ip), vehicle: Klucel (hydroxypropylcellulose) (HPC)) was 109 % of control, the T/C [10] was 99 % of control and 108 % of control and the T/C [11] was 111 % of control.

In the case of `N=c1c2ccccc2cc2c3ccccc3ccn12`, the T/C [7] is reported as 115 % of control, the T/C [8] is reported as 99 % of control and the T/C [9] is reported as 108 % of control.

In the case of `C[Si](C)(C)[Si](C)(C)C`, the T/C (dose: 50.0 mg/kg/injection, schedule: Q01DX009 (ip), vehicle: saline) is reported as 98 % of control, the T/C (dose: 100.0 mg/kg/injection, schedule: Q01DX009 (ip), vehicle: saline) is reported as 111 % of control and the T/C (dose: 200.0 mg/kg/injection, schedule: Q01DX009 (ip), vehicle: saline) is reported as 102 % of control.

With `Nc1nc(N)nc(CNc2c(Br)cc(Br)cc2Br)n1` the T/C [7] was 93 % of control, the T/C [8] was 101 % of control and the T/C [9] was 90 % of control.

For `C=COC(=O)C(Cc1ccc(Cl)cc1)NC(=O)OCc1ccccc1` (stereo unspecified), the T/C [10] was 97 % of control, the T/C [11] was 91 % of control and the T/C (dose: 400.0 mg/kg/injection, schedule: Q04DX002 (ip), vehicle: Klucel (hydroxypropylcellulose) (HPC)) was 95 % of control.

For `Cc1cccc(NC(=O)N(CCCl)N=O)c1`, the T/C (dose: 0.38 mg/kg/injection, schedule: Q04DX003 (ip), vehicle: saline with Tween-80) was 186 % of control, the T/C (dose: 0.75 mg/kg/injection, schedule: Q04DX003 (ip), vehicle: saline with Tween-80) was 218 % of control and the T/C (dose: 1.5 mg/kg/injection, schedule: Q01DX009 (ip), vehicle: saline) was 159 % of control. The T/C (dose: 1.5 mg/kg/injection, schedule: Q04DX003 (ip), vehicle: saline with Tween-80) was 272 % of control, the T/C (dose: 3.0 mg/kg/injection, schedule: Q01DX009 (ip), vehicle: saline) was 206 % of control and the T/C [1] was 254 % of control. The T/C [2] was 190 % of control, the T/C [3] was 95 % of control and the T/C (dose: 6.25 mg/kg/injection, schedule: Q04DX003 (ip), vehicle: saline with Tween-80) was 200 % of control. For the same molecule, the T/C [4] was 209 % of control, the T/C (dose: 8.25 mg/kg/injection, schedule: Q04DX003 (ip), vehicle: saline with Tween-80) was 276 % of control and the T/C (dose: 12.5 mg/kg/injection, schedule: Q04DX003 (ip), vehicle: saline with Tween-80) was 272 % of control and 285 % of control. For the same molecule, the T/C [5] was 118 % of control.

`COc1cc(CNC(=O)CCCC/C=C\C(C)C)ccc1OC(=O)/C=C/c1ccccc1` was tested, and the T/C (dose: 1.55 mg/kg/injection, schedule: Q01DX009 (ip), vehicle: Klucel (hydroxypropylcellulose) (HPC)) was 100 % of control, the T/C (dose: 3.1 mg/kg/injection, schedule: Q01DX009 (ip), vehicle: Klucel (hydroxypropylcellulose) (HPC)) was 106 % of control and the T/C (dose: 6.2 mg/kg/injection, schedule: Q01DX009 (ip), vehicle: Klucel (hydroxypropylcellulose) (HPC)) was 103 % of control.

With `Nc1nc2c(C(=O)N3CCOCC3)nnn2c2ccccc12` the T/C (dose: 50.0 mg/kg/injection, schedule: Q01DX009 (ip), vehicle: saline with Tween-80) was 100 % of control, the T/C (dose: 100.0 mg/kg/injection, schedule: Q01DX009 (ip), vehicle: saline with Tween-80) was 92 % of control and the T/C (dose: 200.0 mg/kg/injection, schedule: Q01DX009 (ip), vehicle: saline with Tween-80) was 96 % of control.

With `CCC(=O)C1C(=O)CC(=O)C(C)C1c1ccccc1OC` (stereo unspecified) the T/C (dose: 50.0 mg/kg/injection, schedule: Q01DX005 (ip), vehicle: saline with Tween-80) was 92 % of control, the T/C (dose: 100.0 mg/kg/injection, schedule: Q01DX005 (ip), vehicle: saline with Tween-80) was 90 % of control and the T/C (dose: 200.0 mg/kg/injection, schedule: Q01DX005 (ip), vehicle: saline with Tween-80) was 87 % of control.
